In US6355864B1, “Versatile rpL34 promoter elements and use thereof” (Battelle Memorial Institute, priority 1999, dated 2002):

Columns and labels:
rpL34 promoter [1] = settings: previous promoter analyses (Dai et al. 1996); on top of mechanical wounding; cited from earlier work
rpL34 promoter [2] = assay: Response of rpL34 promoter constructs to wounding and plant hormones in leaf discs of transgenic tobacco; assay type: in vivo, Nicotiana tabacum; settings: leaf discs of plants with −1500, m178 or Δ147; 1 μM 2,4-D or 5 μM BA in MS medium, 24 hr; versus wounding alone
Description: Fresh young leaves of independent transgenic tobacco were ground in lysis buffer (50 mM sodium phosphate, pH 7.0. 10 mM EDTA, 0.1% TritonX-100, 0.1% sarkosyl and 10 mM DTT). Tobacco protoplast protein was extracted in the same buffer by sonication on ice twice, 5 seconds each time. […] Approximately 5-10 μg of protein was incubated in the presence of 1 mM 4-methylumbelliferyl β-D-glucuronide in 100 μl of lysis buffer at 37 C. Samples from each reaction were taken at 0, 15, and 30 min intervals and the enzyme reaction was quenched in 0.2 M sodium carbonate (Na2CO3). The flurometer was calibrated with 100, 200, 300, and 400 nM 4-methylumbelliferon in 0.2M sodium carbonate.
Kanamycin resistant T1 seedlings, each containing a unique internally deleted rpL34 promoter, were selected and grown to maturity. Six leaf discs excised from the fourth leaf of each plant by paper punch were randomly pooled and incubated in MS medium with 5 μM BA, 1 μM 2,4-D or no plant hormone (wounding treatment) for 24 hr at room temperature. […] The leaf discs ground immediately after excision in protein extraction buffer served as non-wounded tobacco controls.

Compound	rpL34 promoter activity (rpL34 promoter [1])	induced GUS activity (rpL34 promoter [2])
O=C(O)COc1ccc(Cl)cc1Cl [2,4-D, 2,4-dichlorophenoxyacetic acid]	further enhanced	induced higher GUS activity than wounding alone
c1ccc(CNc2ncnc3nc[nH]c23)cc1 [BA, benzyladenine]	further enhanced	induced higher GUS activity than wounding alone
